Reference: patent US20100111859A1, “Visualization of Biological Material by the Use of Coated Contrast Agents” (priority 2007, published 2010)

Experiment: MRI measurements of relaxation rates and relaxivities
Type: physicochemical
Conditions: for r1: relaxivity, MRI measurement
Source text: MRI measurements: See Engström et al., Magn Reson Mater Phy, 19 (2006) 180-186.
Commercially available and clinically used Gd^3+-DPTA has under the same conditions lower values for 1/T1 and 1/T2 (e.g. 1/T1=0.005 ms^−1). Variations in relaxivities (r1 and r2) and in the relaxivity ratio (r2/r1) are illustrated by: […]

1/T1 (1 mM) (relaxation rate at 1 mM Gd) [ms^−1]	1/T2 (relaxation rate, result in words)	SMILES	r1 [mM⁻¹ s⁻¹]
		[Cl][Gd]([Cl])[Cl] [Gd^3+ (GDCl3)]	10.5
0.005	lower	O=C([O-])CN(CCN(CC(=O)[O-])CC(=O)O)CCN(CC(=O)[O-])CC(=O)O.[Gd+3] [Gd^3+-DTPA]	4.1
